Results on 3 compounds are retold here after ChEMBL document CHEMBL3526141, “Characterization of human liver enzymes involved in the biotransformation of boceprevir, a hepatitis C virus protease inhibitor” (Drug Metab Dispos, 2011).

In one data set the target is T1, Cytochrome P450 2B6 (Homo sapiens, UniProt P20813).
T1 sequence (P20813 whole entry): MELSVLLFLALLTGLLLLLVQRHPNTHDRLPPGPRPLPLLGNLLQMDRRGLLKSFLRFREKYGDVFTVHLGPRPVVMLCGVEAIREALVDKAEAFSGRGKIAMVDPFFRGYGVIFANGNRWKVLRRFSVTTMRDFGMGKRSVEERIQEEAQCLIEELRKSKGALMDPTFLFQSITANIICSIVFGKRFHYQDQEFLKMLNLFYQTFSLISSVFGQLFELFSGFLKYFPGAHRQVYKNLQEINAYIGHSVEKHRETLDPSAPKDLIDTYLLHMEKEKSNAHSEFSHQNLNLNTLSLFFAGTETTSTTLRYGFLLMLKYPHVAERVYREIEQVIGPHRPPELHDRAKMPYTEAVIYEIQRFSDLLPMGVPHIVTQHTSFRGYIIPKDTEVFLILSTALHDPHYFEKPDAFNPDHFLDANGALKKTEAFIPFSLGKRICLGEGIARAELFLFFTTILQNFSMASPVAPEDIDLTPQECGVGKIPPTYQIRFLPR
In words: Drug metabolism assessed as human CYP2B6-mediated compound formation from 5 uM [14C]boceprevir after 120 mins by LC-MS/FSA method relative to total [14C]boceprevir. Format: ADME. The settings on record: recombinant enzyme, 2 h.

The target in the next data set is T2, Cytochrome P450 4F3 (Homo sapiens, UniProt Q08477).
T2 sequence (Q08477 whole entry): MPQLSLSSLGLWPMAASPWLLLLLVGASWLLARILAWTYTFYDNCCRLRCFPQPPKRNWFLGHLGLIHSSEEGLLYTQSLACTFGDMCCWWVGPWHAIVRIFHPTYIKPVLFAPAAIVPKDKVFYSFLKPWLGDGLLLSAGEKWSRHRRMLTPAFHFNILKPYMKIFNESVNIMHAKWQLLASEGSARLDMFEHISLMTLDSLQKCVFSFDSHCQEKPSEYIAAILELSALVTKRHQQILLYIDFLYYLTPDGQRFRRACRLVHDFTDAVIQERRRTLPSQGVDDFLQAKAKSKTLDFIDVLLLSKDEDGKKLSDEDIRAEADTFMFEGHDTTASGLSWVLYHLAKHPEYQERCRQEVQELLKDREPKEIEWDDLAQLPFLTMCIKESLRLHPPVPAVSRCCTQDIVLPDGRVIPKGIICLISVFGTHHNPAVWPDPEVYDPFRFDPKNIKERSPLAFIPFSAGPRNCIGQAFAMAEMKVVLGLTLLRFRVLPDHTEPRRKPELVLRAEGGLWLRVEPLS
Kind of data set: Drug metabolism assessed as human CYP4F3A-mediated compound formation from 5 uM [14C]boceprevir after 120 mins by LC-MS/FSA method relative to total [14C]boceprevir. The format is ADME. The settings on record: recombinant enzyme, 2 h.

The test system of the next data set is Liver microsome. In words: Drug metabolism in human liver microsomes treated with 20 uM [14C]boceprevir assessed as compound formation by LC-MS/FSA method relative to total [14C]boceprevir. Format: ADME.
In data set [1] the test system is Liver cytosol. In words: Drug metabolism in human liver cytosol treated with 20 uM [14C]boceprevir assessed as IC50 for AKR inhibitor ibuprofen-mediated metabolite formation after 60 mins by LC-MS/MS/FSA method. Format: ADME, tissue-based. The settings on record: 1 h.
Another data set concerns the target T3, Cytochrome P450 1A2 (Homo sapiens, UniProt P05177).
T3 sequence (P05177 whole entry): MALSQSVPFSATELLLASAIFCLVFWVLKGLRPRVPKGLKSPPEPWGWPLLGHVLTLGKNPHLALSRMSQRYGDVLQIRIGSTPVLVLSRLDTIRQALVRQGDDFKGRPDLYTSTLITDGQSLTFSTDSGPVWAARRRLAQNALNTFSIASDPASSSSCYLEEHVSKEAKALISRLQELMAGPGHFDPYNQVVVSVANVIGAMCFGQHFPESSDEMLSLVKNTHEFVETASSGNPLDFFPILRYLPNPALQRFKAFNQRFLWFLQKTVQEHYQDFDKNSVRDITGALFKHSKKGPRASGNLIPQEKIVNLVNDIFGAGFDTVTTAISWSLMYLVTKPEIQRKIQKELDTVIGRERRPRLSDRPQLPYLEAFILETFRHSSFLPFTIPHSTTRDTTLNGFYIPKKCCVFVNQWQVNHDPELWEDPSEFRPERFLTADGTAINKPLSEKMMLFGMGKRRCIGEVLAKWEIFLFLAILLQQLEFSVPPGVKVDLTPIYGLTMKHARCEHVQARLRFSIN
Kind of data set: (§1) Drug metabolism assessed as human […]-mediated compound formation from 5 uM [14C]boceprevir after 120 mins by LC-MS/FSA method relative to total [14C]boceprevir. The format is ADME. Particulars: recombinant enzyme, 2 h.

For a further data set, the target named is T4, Cytochrome P450 1A1 (Homo sapiens, UniProt P04798).
T4 sequence (P04798 whole entry): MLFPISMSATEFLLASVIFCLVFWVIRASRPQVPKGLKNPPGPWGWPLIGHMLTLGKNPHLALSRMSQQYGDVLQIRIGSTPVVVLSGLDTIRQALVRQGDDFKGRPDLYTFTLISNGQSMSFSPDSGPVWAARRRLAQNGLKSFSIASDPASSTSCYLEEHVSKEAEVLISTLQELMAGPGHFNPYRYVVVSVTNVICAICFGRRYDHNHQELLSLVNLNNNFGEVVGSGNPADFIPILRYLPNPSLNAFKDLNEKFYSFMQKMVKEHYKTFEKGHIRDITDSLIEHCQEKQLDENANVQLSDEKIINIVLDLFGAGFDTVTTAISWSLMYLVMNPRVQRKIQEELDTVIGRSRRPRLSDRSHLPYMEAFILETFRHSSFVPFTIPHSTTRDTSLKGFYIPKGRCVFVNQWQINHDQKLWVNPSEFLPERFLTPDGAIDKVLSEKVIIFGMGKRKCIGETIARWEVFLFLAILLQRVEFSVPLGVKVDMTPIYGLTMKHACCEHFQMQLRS
The data set is described as §1. The format is ADME. Particulars: recombinant enzyme, 2 h.

In a further data set the test system is Plasma. Kind of data set: Drug metabolism in human plasma treated with [14C]boceprevir assessed as ratio of drug level by LC-MS/MS method relative to boceprevir. Format: ADME, cell-free.
The target of a further data set is Cytochrome P450 2C19 (Homo sapiens, UniProt P33261). Kind of data set: Drug metabolism assessed as human CYP2C19-mediated compound formation from 5 uM [14C]boceprevir after 120 mins by LC-MS/FSA method relative to total [14C]boceprevir. Particulars: recombinant enzyme, 2 h. The format is ADME.
Cytochrome P450 2C19, sequence (P33261 whole entry): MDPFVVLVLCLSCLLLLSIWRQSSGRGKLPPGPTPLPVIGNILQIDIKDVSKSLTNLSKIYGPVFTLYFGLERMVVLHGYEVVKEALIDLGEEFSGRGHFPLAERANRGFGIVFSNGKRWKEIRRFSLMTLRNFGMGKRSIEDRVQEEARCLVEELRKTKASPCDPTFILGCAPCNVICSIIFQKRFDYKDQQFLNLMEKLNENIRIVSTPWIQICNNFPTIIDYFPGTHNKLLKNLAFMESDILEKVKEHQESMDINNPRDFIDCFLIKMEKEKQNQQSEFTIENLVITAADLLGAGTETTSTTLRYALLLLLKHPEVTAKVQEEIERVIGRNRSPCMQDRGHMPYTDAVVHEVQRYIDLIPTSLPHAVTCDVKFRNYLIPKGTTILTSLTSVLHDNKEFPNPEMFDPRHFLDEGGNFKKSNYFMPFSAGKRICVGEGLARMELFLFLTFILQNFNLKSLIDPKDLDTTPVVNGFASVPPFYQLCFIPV
Data set [2] relates to Liver cytosol. Kind of data set: Drug metabolism in human liver cytosol treated with 20 uM [14C]boceprevir assessed as IC50 for AKR inhibitor diflunisal-mediated metabolite formation after 60 mins by LC-MS/MS/FSA method. The format is ADME, tissue-based. Particulars: 1 h.
Data set [3] can be described thus: Retention time of the compound by LC-MS/MS method. Format: physicochemical.
In data set [4] the test system is Liver cytosol. In words: Drug metabolism in human liver cytosol at 20 uM assessed as (1R,2S,5S)-N-((2R,3R)-4-amino-1-cyclobutyl-3-hydroxy-4-oxobutan-2-yl)-3-((S)-2-(3-tert-butylureido)-3,3-dimethylbutanoyl)-6,6-dimethyl-3-azabicyclo[3.1.0]hexane-2-carboxamide formation in presence of BNPP by LC-MS/MS/FSA method. The format is ADME.
Data set [5] has as its system Liver cytosol. In words: Drug metabolism in human liver cytosol at 20 uM assessed as (1R,2S,5S)-N-((2S,3R)-4-amino-1-cyclobutyl-3-hydroxy-4-oxobutan-2-yl)-3-((S)-2-(3-tert-butylureido)-3,3-dimethylbutanoyl)-6,6-dimethyl-3-azabicyclo[3.1.0]hexane-2-carboxamide formation in presence of BNPP by LC-MS/MS/FSA method. Format: ADME.

In the case of `CC(C)(C)NC(=O)N[C@H](C(=O)N1C[C@H]2[C@@H]([C@H]1C(=O)N[C@@H](CC1CCC1)[C@@H](O)C(N)=O)C2(C)C)C(C)(C)C`, the Compound recovery at Cytochrome P450 2B6 is recorded as 0.9%; on Cytochrome P450 4F3, 1.78%; with Liver microsome it was 0.6%; on Cytochrome P450 1A2 it was 0.34%; at Cytochrome P450 1A1, 0.57%; in the data set on Plasma, “>= 50%”. For the same compound, the Compound recovery at Cytochrome P450 2C19 is recorded as 0.38%. Further, the half-maximal inhibitory concentration (IC50) was determined as 412 µM in the data set on Liver cytosol [1] and 4.58 µM in the data set on Liver cytosol [2]. Further, the Retention_time in data set [3] is on record as 40.1 min.

Take `CC(C)(C)NC(=O)N[C@H](C(=O)N1C[C@H]2[C@@H]([C@H]1C(=O)NC(CC1CCC1)C(=O)C(N)=O)C2(C)C)C(C)(C)C` (some centres undefined) [BOCEPREVIR]: the IC50 in the data set with Liver cytosol [1] was found to be 412 µM; in the data set on Liver cytosol [2] it was 4.58 µM. Moreover, the Compound recovery result in the data set with Liver cytosol [4] and in the data set on Liver cytosol [5] was “metabolite_not_detected” in each case.

Turning to `CC(C)(C)NC(=O)N[C@H](C(=O)N1C[C@H]2[C@@H]([C@H]1C(=O)N[C@H](CC1CCC1)C(=O)C(N)=O)C2(C)C)C(C)(C)C`, the Compound recovery at Cytochrome P450 2B6 is 33.77%; at Cytochrome P450 4F3, 34.35%; in the data set on Liver microsome, 17.42%; at Cytochrome P450 1A2, 31.72%; at Cytochrome P450 1A1, 33.4%; with Plasma it was “>= 50%”. In addition, the Compound recovery is listed as 30.71% on Cytochrome P450 2C19, “metabolite_not_detected” with Liver cytosol [4] and “metabolite_not_detected” in the data set on Liver cytosol [5]. In addition, the Retention_time in data set [3] was 44.6 min.
